Results published in publication PMC11898565, “Perturbation of Pseudomonas aeruginosa peptidoglycan recycling by anti-folates and design of a dual-action inhibitor” (mBio, 2025).

How the values were obtained:
VIM-2 = molecular target: T1, VIM-2 (Pseudomonas aeruginosa, UniProt Q9K2N0); assay: in vitro meropenem hydrolysis assay ([…] nm), […] enzyme, […] ZnSO4; type: biochemical
T1 construct: gene blaVIM-2

NDM-1 = molecular target: T2, NDM-1 (Klebsiella pneumoniae, UniProt C7C422); assay: as above; type: biochemical
T2 construct: gene blaNDM-1
T2 sequence (C7C422 29-270 limits assumed): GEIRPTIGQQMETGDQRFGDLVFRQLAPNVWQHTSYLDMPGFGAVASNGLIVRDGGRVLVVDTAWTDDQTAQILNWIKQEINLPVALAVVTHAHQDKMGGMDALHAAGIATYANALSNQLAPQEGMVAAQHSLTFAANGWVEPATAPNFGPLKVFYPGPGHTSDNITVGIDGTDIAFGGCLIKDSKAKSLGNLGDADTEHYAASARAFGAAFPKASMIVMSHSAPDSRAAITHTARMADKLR

## Nc1ccc(S(=O)(=O)Nc2scnc2C(=O)O)cc1 [MLLB-2201]
VIM-2
  IC50: 14.5 µM
NDM-1
  IC50: 1.8 µM
